This is an account of results in article PMC9150076 (Journal of Medicinal Chemistry, 2022).

Read-outs that look alike come from different tables or passages of the source. A value given as a limit tells only on which side of the number the result lay.

One data set concerns the target T1, human FAAH (Homo sapiens, UniProt O00519).
T1 sequence (O00519 1-579): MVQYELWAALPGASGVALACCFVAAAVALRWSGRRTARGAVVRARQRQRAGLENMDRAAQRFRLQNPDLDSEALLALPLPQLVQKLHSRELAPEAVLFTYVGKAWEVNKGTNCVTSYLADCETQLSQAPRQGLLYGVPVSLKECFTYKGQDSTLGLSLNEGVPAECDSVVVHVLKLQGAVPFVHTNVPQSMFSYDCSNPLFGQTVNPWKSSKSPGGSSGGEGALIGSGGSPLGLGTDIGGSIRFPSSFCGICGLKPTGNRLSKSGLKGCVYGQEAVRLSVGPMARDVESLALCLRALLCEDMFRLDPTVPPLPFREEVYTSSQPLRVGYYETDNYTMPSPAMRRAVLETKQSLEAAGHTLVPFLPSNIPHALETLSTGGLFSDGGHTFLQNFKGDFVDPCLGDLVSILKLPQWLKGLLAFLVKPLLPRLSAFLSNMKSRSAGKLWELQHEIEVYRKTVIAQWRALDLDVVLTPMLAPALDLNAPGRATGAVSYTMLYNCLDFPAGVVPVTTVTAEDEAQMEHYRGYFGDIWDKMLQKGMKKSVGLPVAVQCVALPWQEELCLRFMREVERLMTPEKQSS
The arrangement: purchased Cayman Chemical; method as in PMID 33045662. Particulars: reference benzoylpiperidines; read-out: IC50 hFAAH; cited from earlier work.

Data set [1] deals with T2, human MAGL (Homo sapiens, UniProt Q99685).
T2 sequence (Q99685 1-303): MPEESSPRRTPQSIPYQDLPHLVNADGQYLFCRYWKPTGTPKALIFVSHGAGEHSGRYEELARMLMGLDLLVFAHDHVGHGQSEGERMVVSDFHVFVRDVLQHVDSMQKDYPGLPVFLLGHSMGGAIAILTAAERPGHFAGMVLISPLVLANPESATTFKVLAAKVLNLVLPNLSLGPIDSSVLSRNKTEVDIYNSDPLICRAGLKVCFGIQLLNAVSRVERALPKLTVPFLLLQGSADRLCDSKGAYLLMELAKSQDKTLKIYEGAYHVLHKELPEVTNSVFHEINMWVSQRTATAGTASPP
Set-up: purchased Cayman Chemical; method as in PMID 33045662. Particulars: reference benzoylpiperidines; read-out: IC50 hMAGL; cited from earlier work.

Another data set in a line: Water solubility. The class given is physicochemical. Conditions: distilled water, room temperature. On the procedure:
6.9 software. Chromatographic separation was obtained using a Kinetex C18 column (150 × 4.6 mm) with a 5 μm particle size and gradient elution with a binary solution; (eluent A: ACN, eluent B: water, both eluents were acidified with formic acid 0.1% v/v). The analysis started with 5% of A (from t = 0 to t = 1 min), then A was increased to 95% (from t = 1 to t = 10 min), then kept at 95% (from t = 10 to t = 19 min), and finally returned to 5% of eluent A in 1.0 min. The flow rate was 0.6 mL/min, and injection volumes were 10 μL. The instrument operated in positive mode, and parameters were detector 1450 V, drying gas pressure 35.0 psi, desolvation temperature 300.0 °C, nebulizing gas 45.0 psi, needle 5550 V and shield 350 V. Nitrogen was used as a nebulizer gas and drying gas. Collision-induced dissociation was performed using argon as the collision gas at a pressure of 1.8 mTorr in the collision cell. The transitions as well as the capillary voltage and the collision energy used are appropriated for each tested compound. Quantification of the single compound was made by comparison with appropriate calibration curves realized with standard solutions in methanol. LC analyses of PAMPA, metabolic stability, and stability tests (in MeOH, PBS, human plasma) were performed by UV/LC–MS with an Agilent 1100 LC/MSD VL system ((G1946C) Agilent Technologies, Palo Alto, CA) using a Phenomenex Kinetex C18–100 Å (150 × 4.6 mm, 5 μm particle size) at room temperature. Analyses were carried out with the same chromatographic conditions reported above.
Each sample was mixed at room temperature in a shaker water bath for 24 h.[62] The resulting suspension was filtered through a 0.45 μm nylon filter (Acrodisc), and the solubilized compound was quantified in triplicate using the LC–MS/MS method reported above, by comparison with the appropriate calibration curve that was obtained from samples of the compound dissolved in methanol at different concentrations.

Data set [2] can be described thus: Stability test in human plasma. In kind it is in vitro ADME. Conditions: 37 °C. As for the experimental part: The incubation mixture (total volume of […]) was constituted by the following components: pooled human plasma (1.5 mL, 55.7 mg protein/mL),[65] HEPES buffer (1.4 mL, 25 mM, 140 mM NaCl pH 7.4), and 100 μL of each compound in DMSO (3.0 mM). The solution was mixed in a test tube that was incubated at 37 °C. At set time points (0.0, 0.25, 0.50, 1.0, 2.0, 4.0, 8.0, and 24.0 h), samples of 100 μL were taken, mixed with 400 μL of cold acetonitrile, and centrifuged at 5000 rpm for 15 min.[66] The supernatant was removed and analyzed by UV/LC–MS. For each compound, the determination was performed in three independent experiments.

Data set [3] can be described thus: Metabolic stability in human liver microsomes. In kind it is in vitro ADME. Conditions: 37 °C, 1 h, percentage of unmodified compound. On the procedure:
The reaction was cooled down in ice and quenched by adding acetonitrile (1.0 mL). After centrifugation (4000 rpm for 10 min), the supernatant was taken, dried under nitrogen flow, and suspended in 100 μL of methanol and the parent drug and metabolites were subsequently determined by UV/LC–MS. The percentage of nonmetabolized compounds was calculated by comparison with reference solutions. For each compound, the determination was performed in three independent experiments.

Data set [4] in a line: Stability test in polar solvents. The class given is physicochemical. As for the experimental part:
Each compound was dissolved at RT in MeOH or PBS (25 mM, pH 7.4) up to a final concentration of 500 μM. Aliquot samples (20 μL) were taken at fixed time points (0.0, 4.0, 8.0, and 24.0 h) and were analyzed by UV/LC–MS. For each compound, the determination was performed in three independent experiments.

Data set [5] has as its system active caspase-3 in PDAC3 cells. The data set can be described thus: Active caspase-3 immunoassay, PDAC3. The class given is cell-based, human. Conditions: PDAC3, compared to untreated cells.
Data set [6] deals with PDAC3 primary cell culture. Nature of the data set: Growth inhibition, SRB assay, PDAC3. Particulars: PDAC3, SRB. The class given is cell-based, human.
For the next data set, the system named is PDAC3 cells. The data set can be described thus: Wound-healing/migration assay, PDAC3. The class given is cell-based, human. Conditions: PDAC3, 20 h, drug at 5× IC50; control 59 ± 8%.
For the next data set, the target named is MAGL (Mus musculus, UniProt O35678).
Data set [7] concerns the target T2, human MAGL.
A further data set has as its system PDAC2 cells. Conditions: PDAC2, single agent.
Data set [8] deals with active caspase-3 in PDAC2 cells. The data set can be described thus: Active caspase-3 immunoassay, PDAC2. The class given is cell-based, human. Particulars: untreated 0.35.

Chain of MAGL (O35678 whole entry): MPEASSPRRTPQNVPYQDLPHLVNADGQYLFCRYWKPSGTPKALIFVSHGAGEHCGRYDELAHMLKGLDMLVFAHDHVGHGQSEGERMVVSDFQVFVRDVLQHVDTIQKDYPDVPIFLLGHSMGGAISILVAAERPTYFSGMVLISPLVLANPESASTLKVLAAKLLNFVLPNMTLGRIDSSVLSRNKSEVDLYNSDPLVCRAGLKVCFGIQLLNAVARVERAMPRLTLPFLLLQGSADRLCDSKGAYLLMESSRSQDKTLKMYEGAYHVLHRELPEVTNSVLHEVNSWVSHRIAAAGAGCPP

A word on the IC50: it is the concentration that inhibits the measured activity by half. Regarding `O=C(c1ccc(Sc2ccccc2)cc1)C1CCN(C(=O)c2cc(O)ccc2F)CC1` [Compound 5b], the IC50 at human FAAH was greater than 10000 nM; on human MAGL [1], 30.5 ± 1.8 nM.

A word on the solubility: it is how much of the substance goes into solution per volume. As to `O=C(c1ccc(Sc2cccc(C(F)(F)F)c2)cc1)C1CCN(C(=O)c2cc(O)ccc2F)CC1` [Compound 5c, reference compound], the solubility at 24 h was less than 1 ng/mL in “Water solubility” (read-out: water solubility) and less than 1.99 nM in the data set “Water solubility” (read-out: water solubility (logS)). This molecule yielded a stability human plasma in data set [2] greater than 24 h. In data set [3], this molecule gave a metabolic stability of 90.5%. Further, in data set [4] (MeOH, RT), the “stability MeOH” value is greater than 24 h. In data set [4] (PBS pH 7.4, RT), the “stability PBS pH 7.4” value is on record as greater than 24 h.

As for `O=C(Oc1ccc([N+](=O)[O-])cc1)N1CCC(C(O)(c2ccc3c(c2)OCO3)c2ccc3c(c2)OCO3)CC1` [JZL-184], the “levels of active caspase-3” value in [5] is on record as “similarly effective in stimulating caspase-3”. Also, in data set [6], the “PDAC3 cell growth inhibitory effect (cell growth curves)” value was “effective in reducing PDAC3 proliferation”. Besides, in the data set on PDAC3 cells, the scratch area closed is on record as 43 ± 8%. The “TAMRA-FP labelling of MAGL bands (ABPP)” value on MAGL is “can fully compete with the probe”. Moreover, the “mechanism of inhibition (pre-incubation and dilution assays)” value on human MAGL [7] is “irreversible mechanism of action”.

`Nc1ccn([C@@H]2O[C@H](CO)[C@@H](O)C2(F)F)c(=O)n1` [gemcitabine] displayed an apoptosis fold induction/change in the data set on PDAC2 cells of roughly 5 fold. For the same molecule, the “levels of active caspase-3” value in data set [5] is “significantly higher levels of active caspase-3”; in [8] it was 0.88 ng/mL.
